ChEMBL document CHEMBL1158024, “Terpenoids of Syzygium formosanum” (J Nat Prod, 1999)

Experiment: Inhibition of moloney murine leukemia virus reverse transcriptase

C=C(C)[C@@H]1CC[C@]2(C(=O)O)CC[C@]3(C)[C@H](CC[C@@H]4[C@@]5(C)CC[C@H](O)C(C)(C)[C@@H]5CC[C@]43C)[C@@H]12 [BETULINIC ACID]
EC50: 1400 nM
